Source: patent US20190365710A1, “METHODS OF TREATING CANCER” (GlaxoSmithKline Intellectual Property Development Limited, priority 2016, published 2019)

System: AML cell lines
Test: Methylscan proteomic evaluation of arginine methylation
Type: cell-based
Conditions: AML cell lines treated with the tool compound vs DMSO
Text: FIG. 3: Methylscan evaluation of cell lines treated with Compound D. Percent of proteins with methylation changes (independent of directionality of change) are categorized by functional group as indicated.
To identify putative PRMT1 substrates, a proteomic approach (Methylscan, Cell Signaling Technology) was utilized to identify proteins with changes in arginine methylation states in response to a tool PRMT1 inhibitor, Compound D. Protein fragments from Compound D- and DSMO-treated cell extracts were immunoprecipitated using methyl arginine specific antibodies (ADMA, MMA, SDMA), and peptides were identified by mass spectrometry.

SMILES: CNCCN(C)Cc1c[nH]nc1[C@H]1CC[C@@]2(CC1)CC(C)(C)CO2 [Compound D]
- proteins with changes in arginine methylation states (Methylscan): the majority of substrates identified were transcriptional regulators and RNA processing proteins
